Assay results published in publication PMC6302903, “Protein and Chemical Determinants of BL-1249 Action and Selectivity for K2P Channels” (ACS Chemical Neuroscience, 2018).

How the values were obtained:
Assay type in all cases: cell-based
TREK-1/AAK M2-C = TREK-1/AAK M2-C (Mus musculus, UniProt O88454+P97438); assay: TEVC of chimera TREK-1/AAK M2-C; details: Xenopus oocytes
K2P4.1(TRAAK) = biological target: T1, K2P4.1(TRAAK) (Mus musculus, UniProt O88454); assay: TEVC of K2P4.1(TRAAK) in Xenopus oocytes
T1 construct: expressed in transfected cells; host or cells: Xenopus laevis oocytes injected with mRNA made from pGEMHE/pMO
T1 sequence (O88454 1-398): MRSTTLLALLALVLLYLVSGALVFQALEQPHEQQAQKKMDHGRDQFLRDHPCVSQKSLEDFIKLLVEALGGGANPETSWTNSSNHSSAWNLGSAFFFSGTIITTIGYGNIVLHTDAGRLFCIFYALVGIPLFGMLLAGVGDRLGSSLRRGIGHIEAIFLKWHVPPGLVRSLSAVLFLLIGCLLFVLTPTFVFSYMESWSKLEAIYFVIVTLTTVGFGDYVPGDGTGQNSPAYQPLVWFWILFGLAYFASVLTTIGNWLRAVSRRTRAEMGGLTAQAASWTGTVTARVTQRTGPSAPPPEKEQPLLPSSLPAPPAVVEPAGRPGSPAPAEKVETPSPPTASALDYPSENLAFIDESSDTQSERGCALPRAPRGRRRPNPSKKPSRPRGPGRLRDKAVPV
From the text: Constructs for murine K2P channels, including K2P2.1(TREK-1) (Gene ID 16526), K2P10.1(TREK-2) (Gene ID 72258), K2P4.1(TRAAK) (Gene ID 16528), K2P5.1(TASK-2) (Gene ID 16529), K2P3.1(TASK-1) (Gene ID 16527), K2P9.1(TASK-3) (Gene ID 223604), and K2P18.1(TRESK) (Gene ID 332396) in pGEMHE/pMO, were used for Xenopus oocyte experiments as previously described.[10],[26] Murine K2P2.1(TREK-1) (Gene ID 16526) was expressed in HEK-293 cells using a pIRES-EGFP construct as previously described.[26] Murine K2P13.1(THIK-1) (Gene ID 217826) and K2P1.1(TWIK-1) (Gene ID 16525) were cloned into pGEMHE/pMO for use in Xenopus oocytes. Chimeras were designed using EMBOSS Needle pairwise sequence alignment tool[58] to match homologous helices in K2P2.1(TREK-1) and K2P4.1(TRAAK) and were assembled using the Gibson assembly method.[59] Chimera boundaries are Thr152 (TREK-1/AAK M2-C), Trp199 (TREK-1/AAK M3-C), Y272 (TREK-1/AAK M4-C), Thr114 (TRAAK/EK-1 M2-C), Trp161 (TRAAK/EK-1 M3-C), and Tyr234 K2P4.1(TRAAK). All sequences were verified using DNA sequencing.
Xenopus laevis oocytes were harvested in accordance with UCSF IACUC protocol AN129690 and digested in calcium-free ND-96 (96 mM NaCl, 2 mM KCl, 3.8 mM MgCl2) immediately following harvest, as previously described.[6],[10] Digested oocytes were maintained in standard ND96 (96 mM NaCl, 2 mM KCl, 1.8 mM CaCl2, 2 mM MgCl2) with antibiotics (100 units mL^–1 penicillin, 100 μg mL^–1 streptomycin, 50 μg mL^–1 gentimycin). Defolliculated stage V–VI oocytes were injected with 0.2–6.0 ng of mRNA in 50 nL, and currents were recorded 24–48 h after injection. mRNA was synthesized from plasmid DNA using mMessage mMachine Kit (T7 promoter, Ambion, Life Technologies) and purified using RNEasy Kit (Qiagen). Injected oocytes were impaled with two standard microelectrodes (0.2–1.0 MΩ) filled with 3 M KCl and subjected to constant perfusion of standard ND96 during recording. Currents were amplified using the GeneClamp 500B (MDS Analytical Technologies) amplifier controlled by the pClamp software (Molecular Devices). Data were digitized at 1 kHz using Digidata 1332A (MDS Analytical Technologies). For all experiments with small molecules, basal currents were evoked using 1 s long ramps from −150 to +50 mV under constant perfusion of ND96. Once stabilized basal currents were recorded, compounds were perfused at various concentrations in standard ND96 and currents were allowed to increase to stabilization before recording final current. Fold activation upon compound application is expressed as I/I0 (0 mV), derived from the current at 0 mV in the presence of compound divided by the basal current at 0 mV in standard ND96 without compound. Data were analyzed and plotted using Graphpad Prism Version 5 (GraphPad Software, San Diego California USA, www.graphpad.com). […] In the case of BL-1249-acid EC50 estimation, upper bound of I/I0 was set to 20 to account for the strong stimulation of BL-1249-acid.

TRAAK/EK-1_T = TRAAK/EK-1_T (Mus musculus, UniProt O88454); assay: TEVC of C-terminal tail swap chimera TRAAK/EK-1_T; details: Xenopus oocytes
From the text: Given the importance of the C-terminal tail for the BL-1249 response and the fact that the C-terminal tails of K2P2.1(TREK-1) and K2P4.1(TRAAK) vary substantially (17.6% sequence similarity, 13.5% identity), we wondered if these differences could contribute to the different potencies observed in K2P2.1(TREK-1) and K2P4.1(TRAAK) BL-1249 responses. To test this possibility, we made chimeras that swapped the C-terminal tail between K2P2.1(TREK-1) and K2P4.1(TRAAK), TREK-1/AAK_T and TRAAK/EK_T. […] Despite this modest change, it is clear that the C-terminal tail alone is not sufficient to endow the K2P4.1(TRAAK) core with a K2P2.1(TREK-1)-like BL-1249 response. […]
(§1) Xenopus laevis oocytes were harvested in accordance with UCSF IACUC protocol AN129690 and digested in calcium-free ND-96 (96 mM NaCl, 2 mM KCl, 3.8 mM MgCl2) immediately following harvest, as previously described.[6],[10] […] Defolliculated stage V–VI oocytes were injected with 0.2–6.0 ng of mRNA in 50 nL, and currents were recorded 24–48 h after injection. mRNA was synthesized from plasmid DNA using mMessage mMachine Kit (T7 promoter, Ambion, Life Technologies) and purified using RNEasy Kit (Qiagen). […] Once stabilized basal currents were recorded, compounds were perfused at various concentrations in standard ND96 and currents were allowed to increase to stabilization before recording final current. […]

K2P1.1(TWIK-1) = biological target: T2, K2P1.1(TWIK-1) (Mus musculus, UniProt O08581); assay: TEVC of K2P1.1(TWIK-1) in Xenopus oocytes; details: concentrations up to the solubility limit (∼80 μM)
T2 construct: expressed in transfected cells; host or cells: Xenopus laevis oocytes injected with mRNA made from pGEMHE/pMO
Procedure: BL-1249 activates K2P2.1(TREK-1)[18],[40] and K2P10.1(TREK-2),[7] but its effects on other K2P channels have not been characterized. […] In order to test if the original 10 μM assay had missed BL-1249 effects in other K2P channels, we tested concentrations of BL-1249 up to the solubility limit (∼80 μM) against the other K2P subfamily representatives. […]
as §1, with “current. Fold activation upon compound application is expressed as I/I0 (0 mV), derived from the current at 0 mV in the presence of compound divided by the basal current at 0 mV in standard ND96 without compound. Data were analyzed and plotted using Graphpad Prism Version 5 (GraphPad Software, San Diego California USA, www.graphpad.com).” for “current.”

T2 sequence (O08581 whole entry): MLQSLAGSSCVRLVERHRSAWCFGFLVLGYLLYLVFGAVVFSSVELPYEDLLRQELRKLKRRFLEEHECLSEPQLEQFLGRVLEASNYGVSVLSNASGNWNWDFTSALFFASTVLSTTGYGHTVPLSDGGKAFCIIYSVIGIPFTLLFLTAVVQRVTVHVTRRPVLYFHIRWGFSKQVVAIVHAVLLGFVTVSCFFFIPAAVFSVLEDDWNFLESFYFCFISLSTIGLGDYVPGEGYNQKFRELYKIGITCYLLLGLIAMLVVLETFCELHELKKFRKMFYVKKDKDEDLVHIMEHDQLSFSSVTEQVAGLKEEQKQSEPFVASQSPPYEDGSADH
Sequence of TREK-1/AAK M2-C (P97438 16-167, one chain of several): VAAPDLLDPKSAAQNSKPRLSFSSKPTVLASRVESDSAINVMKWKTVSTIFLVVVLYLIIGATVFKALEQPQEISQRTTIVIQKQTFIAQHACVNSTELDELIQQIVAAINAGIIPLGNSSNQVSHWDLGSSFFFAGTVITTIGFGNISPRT

Structure (SMILES) | EC50 (TREK-1/AAK M2-C) | selectivity for K2P2.1(TREK-1) and K2P10.1(TREK-2) over K2P4.1(TRAAK) (EC50) (K2P4.1(TRAAK)) | K2P4.1(TRAAK) current response (K2P4.1(TRAAK); 10 μM) | EC50 (K2P4.1(TRAAK); saturation not reached (solubility limit), fit with upper boundary of 15 (I/I0)) | EC50 (TRAAK/EK-1_T) | increase in sensitivity of TRAAK/EK-1_T relative to K2P4.1(TRAAK) (TRAAK/EK-1_T) | activation of K2P1.1(TWIK-1) (K2P1.1(TWIK-1))
CS(=O)(=O)Nc1ccc(C(=O)NCc2ccc(Cl)cc2Cl)cc1 [ML335] | > 100 µM |  |  |  |  |  | 
c1ccc(-c2nnn[nH]2)c(Nc2cccc3c2CCCC3)c1 [BL-1249, (5,6,7,8-tetrahydro-naphthalen-1-yl)-[2-(1H-tetrazol-5-yl)-phenyl]-amine] |  | ~10 fold | weakly stimulated | 48 ± 10 µM | 23 ± 4 µM | ~2 fold | failed to find evidence for activation
